# How the values were obtained:
# [1] = Hepatic Stability Assay; type: in vitro ADME; design: dose or concentration left out as unconfirmed; conditions: pooled cryopreserved hepatocytes; read-out: t½
# Protocol: The metabolic stability of certain compounds disclosed herein was assessed in vitro in pooled cryopreserved hepatocytes using the in vitro half-life method. Incubations were at 37° C. and final concentrations in the incubations were 1×10^6 cells/mL and […] test concentration of the compound. Aliquots were sequentially removed after 0, 1, 3 and 6 hours and analyzed by LC-MS/MS. In vitro half-life was determined by measuring the rate of disappearance of the compound and then scaled to predicted hepatic clearance using the well-stirred model. […] As such, compounds having a value of 39.5 may have a half live that exceeds 39.5 hours.
# [2] = system: HBV AD38 viral particles in HepG2 cell line overexpressing NTCP; test: HBV DNA Quantification Assay; type: cell-based; conditions: Hepatitis B virus, HepG2, 120 h, HBV AD38-infected HepG2-NTCP cells, 5 days incubation, HBV DNA in culture supernatant (QuantiGene 2.0); geometric mean of a minimum of four determinations
# Protocol: A HepG2 cell line overexpressing the HBV virus attachment receptor sodium-taurocholate cotransporting polypeptide (NTCP) was grown to confluency in DMEM growth medium, Dulbecco's Modified Eagle Medium without sodium pyruvate (Life Technologies, Rockville, Md.) supplemented with 10% FBS (Thermo Scientific, Waltham, Md.), 1% penicillin/streptomycin (Life Technologies, Rockville, Md.) and 2 mM L-glutamine (Life Technologies, Rockville, Md.) in T175 flasks. Cells were infected with HBV AD38 viral particles (Texcell, Frederick, USA) at 4000 genome equivalents per cell. […] The assay plates were incubated for a period of 5 days and the antiviral activity of the test compounds were assayed by detecting the presence of HBV DNA in the culture supernatant using the QuantiGene™ 2.0 nucleic acid quantification kit (Affymetrix, Santa Clara, Calif.).
# The culture supernatant was harvested and treated with lysis buffer containing Proteinase K (Affymetrix, Santa Clara, Calif.). […] After the final wash step, the alkaline phosphatase substrate (Luminol APS5) was added and the resulting luminescence signal was read in an EnVision Multilabel Plate Reader (PerkinElmer, Santa Clara, Calif.). […]
half-life [1],SMILES,EC50 [2]
≥ 2370 min,"CNC(=O)C1(NC(=O)C(=O)c2c(C)c(C(=O)Nc3ccc(F)c(F)c3)n3c2CCC3)CC(F)(F)C1 [Example 44, 7-(2-((3,3-difluoro-1-(methylcarbamoyl)cyclobutyl)amino)-2-oxoacetyl)-N-(3,4-difluorophenyl)-6-methyl-2,3-dihydro-1H-pyrrolizine-5-carboxamide]",–
–,"Cc1c(C(=O)C(=O)NC2(c3c[nH]nn3)CC(F)(F)C2)c2n(c1C(=O)Nc1ccnc(C(F)F)c1F)[C@@H]1C[C@@H]1C2 [Example 80, (1aR,6aR)-5-(2-((3,3-difluoro-1-(1H-1,2,3-triazol-4-yl)cyclobutyl)amino)-2-oxoacetyl)-N-(2-(difluoromethyl)-3-fluoropyridin-4-yl)-4-methyl-1,1a,6,6a-tetrahydrocyclopropa[b]pyrrolizine-3-carboxamide]",8.7 nM
≥ 2370 min,"Cc1c(C(=O)C(=O)NC2(c3c[nH]nn3)CC2)c2n(c1C(=O)Nc1ccc(F)cc1)CCC2 [Example 70, 7-(2-((1-(1H-1,2,3-triazol-4-yl)cyclopropyl)amino)-2-oxoacetyl)-N-(4-fluorophenyl)-6-methyl-2,3-dihydro-1H-pyrrolizine-5-carboxamide]",–
≥ 2370 min,"Cc1c(C(=O)C(=O)NC2(C)CS(=O)(=O)C2)c2n(c1C(=O)Nc1ccc(F)c(C#N)c1)[C@@H]1C[C@@H]1C2 [Example 72, (1aR,6aR)—N-(3-cyano-4-fluorophenyl)-4-methyl-5-(2-((3-methyl-1,1-dioxidothietan-3-yl)amino)-2-oxoacetyl)-1,1a,6,6a-tetrahydrocyclopropa[b]pyrrolizine-3-carboxamide]",–
≥ 2370 min,Cc1c(C(=O)C(=O)N[C@@](C)(C(N)=O)C(F)(F)F)c2n(c1C(=O)Nc1ccc(F)c(F)c1)CCC2 [Example 136],–
≥ 2370 min,"CNC(=O)C1(NC(=O)C(=O)c2c(C)c(C(=O)Nc3ccc(F)c(F)c3)n3c2C[C@@H](F)C3)CC(F)(F)C1 [Example 49, (R)-7-(2-((3,3-difluoro-1-(methylcarbamoyl)cyclobutyl)amino)-2-oxoacetyl)-N-(3,4-difluorophenyl)-2-fluoro-6-methyl-2,3-dihydro-1H-pyrrolizine-5-carboxamide]",–
≥ 2370 min,"CNC(=O)C1(NC(=O)C(=O)c2c(C)c(C(=O)Nc3cccc(C(F)F)c3)n3c2CCC3)CC(F)(F)C1 [Example 115, 7-(2-((3,3-difluoro-1-(methylcarbamoyl)cyclobutyl)amino)-2-oxoacetyl)-N-(3-(difluoromethyl)phenyl)-6-methyl-2,3-dihydro-1H-pyrrolizine-5-carboxamide]",–
≥ 2370 min,"CNC(=O)C1(NC(=O)C(=O)c2c(C)c(C(=O)Nc3ccc(F)cc3)n3c2CCC3)CC(F)(F)C1 [Example 47, 7-(2-((3,3-difluoro-1-(methylcarbamoyl)cyclobutyl)amino)-2-oxoacetyl)-N-(4-fluorophenyl)-6-methyl-2,3-dihydro-1H-pyrrolizine-5-carboxamide]",–
≥ 2370 min,"Cc1c(C(=O)C(=O)NC2(c3c[nH]nn3)CC2)c2n(c1C(=O)Nc1ccnc(C(F)F)c1)[C@@H]1C[C@@H]1C2 [Example 56, (1aR,6aR)-5-(2-((1-(1H-1,2,3-triazol-4-yl)cyclopropyl)amino)-2-oxoacetyl)-N-(2-(difluoromethyl)pyridin-4-yl)-4-methyl-1,1a,6,6a-tetrahydrocyclopropa[b]pyrrolizine-3-carboxamide]",–
≥ 2370 min,Cc1c(C(=O)C(=O)N[C@](C)(C(N)=O)C(F)(F)F)c2n(c1C(=O)Nc1ccc(F)c(F)c1)CCC2 [Example 135],–
≥ 2370 min,"CNC(=O)C1(NC(=O)C(=O)c2c(C)c(C(=O)Nc3ccc(F)c(C#N)c3)n3c2CCC3)CC(F)(F)C1 [Example 35, N-(3-cyano-4-fluorophenyl)-7-(2-((3,3-difluoro-1-(methylcarbamoyl)cyclobutyl)amino)-2-oxoacetyl)-6-methyl-2,3-dihydro-1H-pyrrolizine-5-carboxamide]",–
≥ 2370 min,"CNC(=O)C1(NC(=O)C(=O)c2c(C)c(C(=O)Nc3ccc(F)c(C(F)F)c3)n3c2CCC3)CC(F)(F)C1 [Example 116, 7-(2-((3,3-difluoro-1-(methylcarbamoyl)cyclobutyl)amino)-2-oxoacetyl)-N-(3-(difluoromethyl)-4-fluorophenyl)-6-methyl-2,3-dihydro-1H-pyrrolizine-5-carboxamide]",–

# — patent US10874640B2 (GILEAD SCIENCES, INC., priority 2016, dated 2020)
